According to patent US8791132B2, “Compounds and methods for treatment of hypertension” (Medivation Technologies, Inc., priority 2011, dated 2014):
Like-named read-outs stand apart in the source and are kept apart here.

How the values were obtained:
[1] = molecular target: T1, human recombinant adrenergic α2B receptor (Homo sapiens, UniProt P18089); experiment: Radioligand binding, adrenergic α2B ([3H]Rauwolscine)
T1 construct: expressed in transfected cells; host or cells: CHO-K1
T1 sequence (P18089 1-450): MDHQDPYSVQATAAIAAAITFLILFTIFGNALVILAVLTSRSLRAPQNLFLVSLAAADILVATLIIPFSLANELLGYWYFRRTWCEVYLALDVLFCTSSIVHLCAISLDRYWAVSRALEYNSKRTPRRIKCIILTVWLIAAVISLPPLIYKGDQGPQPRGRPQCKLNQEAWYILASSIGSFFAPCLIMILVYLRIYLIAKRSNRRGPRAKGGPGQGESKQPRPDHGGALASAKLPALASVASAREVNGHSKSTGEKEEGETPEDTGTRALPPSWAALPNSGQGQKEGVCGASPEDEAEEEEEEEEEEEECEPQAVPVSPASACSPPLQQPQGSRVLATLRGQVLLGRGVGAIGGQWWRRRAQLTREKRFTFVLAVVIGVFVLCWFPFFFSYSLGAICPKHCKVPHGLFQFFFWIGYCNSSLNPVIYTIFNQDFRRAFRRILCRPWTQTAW
Outline: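 Membranes from CHO-K1 cells expressing human recombinant α2B, in 50 mM Tris-HCl pH 7.4, 12.5 mM MgCl2, 1 mM EDTA, 0.2% BSA, incubated with compound and 2.5 nM [3H]Rauwolscine, 60 min, 25 °C.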

[2] = molecular target: T2, human recombinant adrenergic α2A receptor (Homo sapiens, UniProt P08913); experiment: Radioligand binding, adrenergic α2A ([3H]MK-912)
T2 construct: expressed in transfected cells; host or cells: insect Sf9 cells
T2 sequence (P08913 1-465): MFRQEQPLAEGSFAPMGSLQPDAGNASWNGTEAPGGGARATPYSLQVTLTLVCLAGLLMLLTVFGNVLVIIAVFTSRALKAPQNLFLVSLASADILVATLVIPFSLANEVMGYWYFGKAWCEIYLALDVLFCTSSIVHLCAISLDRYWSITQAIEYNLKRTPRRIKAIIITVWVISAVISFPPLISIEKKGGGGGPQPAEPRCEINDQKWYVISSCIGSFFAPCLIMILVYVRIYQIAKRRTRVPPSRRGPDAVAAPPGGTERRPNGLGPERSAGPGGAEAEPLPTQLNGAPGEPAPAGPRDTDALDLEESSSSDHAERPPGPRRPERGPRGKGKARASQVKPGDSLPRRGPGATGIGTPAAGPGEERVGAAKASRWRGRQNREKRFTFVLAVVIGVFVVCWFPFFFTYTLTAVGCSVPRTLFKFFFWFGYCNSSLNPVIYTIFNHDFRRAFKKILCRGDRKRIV
Outline: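 Displacement of 1 nM [3H]MK-912 from receptor produced in insect Sf9 cells was measured after 60 min at 25 °C. Readout: percent inhibition of specific binding.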

[3] = molecular target: T3, rat adrenergic α1B receptor (Rattus norvegicus, UniProt P15823); experiment: Radioligand binding, adrenergic α1B ([3H]Prazosin)
T3 construct: rat adrenergic α1B receptor obtained from Wistar Rat liver; from tissue; host or cells: Wistar rat liver
T3 sequence (P15823 1-515): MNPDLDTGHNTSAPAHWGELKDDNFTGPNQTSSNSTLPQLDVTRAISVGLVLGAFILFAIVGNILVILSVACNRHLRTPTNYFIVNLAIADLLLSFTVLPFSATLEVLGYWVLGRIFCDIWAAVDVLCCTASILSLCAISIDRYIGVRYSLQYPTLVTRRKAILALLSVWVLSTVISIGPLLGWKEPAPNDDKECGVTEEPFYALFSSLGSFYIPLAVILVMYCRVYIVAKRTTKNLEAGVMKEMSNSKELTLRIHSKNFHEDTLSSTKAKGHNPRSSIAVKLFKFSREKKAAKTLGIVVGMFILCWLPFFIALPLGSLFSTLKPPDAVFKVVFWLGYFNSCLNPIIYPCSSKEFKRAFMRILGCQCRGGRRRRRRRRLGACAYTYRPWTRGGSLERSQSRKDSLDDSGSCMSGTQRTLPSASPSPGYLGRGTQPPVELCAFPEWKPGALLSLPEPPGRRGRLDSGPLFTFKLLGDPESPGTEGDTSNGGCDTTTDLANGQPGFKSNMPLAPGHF
Outline: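 Rat α1B receptor from Wistar rat liver was incubated with 0.25 nM [3H]prazosin for 60 min at 25 °C in 50 mM Tris-HCl, pH 7.4, 0.5 mM EDTA. Non-specific binding was defined with 10 μM phentolamine. Bound radioligand was measured by filtration and counting, reported as percent inhibition of specific binding.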

[4] = molecular target: T4, human recombinant adrenergic α1D receptor (Homo sapiens, UniProt P25100); experiment: Radioligand binding, adrenergic α1D ([3H]Prazosin)
T4 construct: expressed in transfected cells; host or cells: HEK-293
T4 sequence (P25100 1-572): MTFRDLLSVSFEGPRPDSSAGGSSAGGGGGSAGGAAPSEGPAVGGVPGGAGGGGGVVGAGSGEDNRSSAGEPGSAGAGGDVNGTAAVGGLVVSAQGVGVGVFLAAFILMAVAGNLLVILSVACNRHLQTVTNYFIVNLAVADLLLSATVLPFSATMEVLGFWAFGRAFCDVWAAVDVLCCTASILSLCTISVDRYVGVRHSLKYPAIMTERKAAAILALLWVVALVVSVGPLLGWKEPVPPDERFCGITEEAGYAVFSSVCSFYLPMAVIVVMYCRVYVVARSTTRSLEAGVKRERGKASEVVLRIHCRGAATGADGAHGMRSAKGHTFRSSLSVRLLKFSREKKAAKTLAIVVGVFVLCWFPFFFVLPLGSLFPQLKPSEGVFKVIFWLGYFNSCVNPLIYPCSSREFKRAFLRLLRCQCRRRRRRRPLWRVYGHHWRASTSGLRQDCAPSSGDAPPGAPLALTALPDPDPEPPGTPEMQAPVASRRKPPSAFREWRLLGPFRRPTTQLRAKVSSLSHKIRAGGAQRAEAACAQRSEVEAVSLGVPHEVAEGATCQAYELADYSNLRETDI
Description: Compounds were incubated with 0.6 nM [3H]Prazosin for 60 min at 25° C. Non-specific binding was estimated in the presence of 10 μM phentolamine. Receptor proteins were filtered and washed, the filters were then counted to determine [3H]Prazosin specifically bound. […] Biochemical assay results are presented as the percent inhibition of specific binding in Table B1.

[5] = read-out: Percentage inhibition of ligand binding, Adrenergic α2B (0.1 μM), compound at 0.1 μM, [3H]Rauwolscine, repeat datapoints each shown
[6] = read-out: Percentage inhibition of ligand binding, Adrenergic α2A (0.1 μM), compound at 0.1 μM, [3H]MK-912, repeat datapoints each shown
[7] = read-out: Percentage inhibition of ligand binding, Adrenergic α1B (0.1 μM), compound at 0.1 μM, [3H]Prazosin, repeat datapoints each shown
[8] = read-out: Percentage inhibition of ligand binding, Adrenergic α1D (0.1 μM), compound at 0.1 μM, [3H]Prazosin, repeat datapoints each shown
[9] = 0.1 μM compound, read-out: Percentage inhibition of ligand binding, Adrenergic α2B
[10] = 0.1 μM compound, read-out: Percentage inhibition of ligand binding, Adrenergic α2A
[11] = 0.1 μM compound, read-out: Percentage inhibition of ligand binding, Adrenergic α1B
[12] = 0.1 μM compound, read-out: Percentage inhibition of ligand binding, Adrenergic α1D

`C/C(=C\n1c2c(c3cc(Cl)ccc31)CCN(C)CC2)c1ccccc1Cl` [compound 235] showed an inhibition at 0.1 µM [1, 5] of 96%, an inhibition at 0.1 µM [2, 6] of 80% and an inhibition at 0.1 µM [3, 7] of 48%. The inhibition at 0.1 µM [4, 8] was 11%.

Work on `C/C(=C/n1c2c(c3cc(C)ccc31)CN(C)CC2)c1cccc(F)c1` [compound 236] yielded an inhibition at 0.1 µM [1, 5] of 98%, an inhibition at 0.1 µM [2, 6] of 99% and an inhibition at 0.1 µM [3, 7] of 94%. For the same compound, the inhibition at 0.1 µM [4, 8] was 85%.

For `C/C(=C\n1c2c(c3cc(C)ccc31)CN(C)CC2)c1cccc(F)c1` [compound 237], the inhibition at 0.1 µM [1, 5] was 99%, the inhibition at 0.1 µM [2, 6] was 98% and the inhibition at 0.1 µM [3, 7] was 80%. For the same compound, the inhibition at 0.1 µM [4, 8] was 52%.

With `C/C(=C\n1c2c(c3cc(C)ccc31)CCN(C)CC2)c1ccc(Cl)c(Cl)c1` [compound 238] the inhibition at 0.1 µM [1, 5] was 98%, the inhibition at 0.1 µM [2, 6] was 94% and the inhibition at 0.1 µM [3, 7] was 67%. For the same compound, the inhibition at 0.1 µM [4, 8] was 25%.

With `COc1ccc(C#Cn2c3c(c4cc(Cl)ccc42)CCN(C)CC3)cc1F` [compound 242] the inhibition at 0.1 µM [1, 9] was 98%, the inhibition at 0.1 µM [2, 10] was 50% and the inhibition at 0.1 µM [3, 11] was 53%. It also gave an inhibition at 0.1 µM [4, 12] of 37%.

`C/C(=C\n1c2c(c3cc(C)ccc31)CN(C)CC2)c1ccc(Cl)c(Cl)c1` [compound 243] showed an inhibition at 0.1 µM [1, 9] of 105%, a Ki [2] of 3.86 nM and an inhibition at 0.03 µM ([2]; 0.03 μM compound, read-out: Percentage inhibition of ligand binding, Adrenergic α2A) of 73%. The “Percentage inhibition of ligand binding, Adrenergic α2A” value ([2]; 0.1 μM compound, 0.1 µM) was 98%, the inhibition at 0.1 µM [2, 10] was 90% and the inhibition at 0.1 µM [3, 11] was 58%. For the same compound, the inhibition at 0.1 µM [4, 12] was 45%.

`C/C(=C\n1c2c(c3cc(Cl)ccc31)CCN(C)CC2)c1cccnc1` [compound 244] showed an inhibition at 0.1 µM [1, 9] of 99%, an inhibition at 0.1 µM [2, 10] of 76% and an inhibition at 0.1 µM [3, 11] of 78%. The inhibition at 0.1 µM [4, 12] was 42%.

Compound `C/C(=C\n1c2c(c3cc(C)ccc31)CCN(C)CC2)c1cccnc1` [compound 245] has an inhibition at 0.1 µM [1, 9] of 96%, an inhibition at 0.1 µM [2, 10] of 65% and an inhibition at 0.1 µM [3, 11] of 69%. The inhibition at 0.1 µM [4, 12] was 35%.

Work on `COc1ccc(/C(C)=C/n2c3c(c4cc(Cl)ccc42)CCN(C)CC3)cc1` [compound 246] yielded an inhibition at 0.1 µM [1, 9] of 101%, an inhibition at 0.1 µM [2, 10] of 86% and an inhibition at 0.1 µM [3, 11] of 82%. It also gave an inhibition at 0.1 µM [4, 12] of 68%.

In the case of `C/C(=C/n1c2c(c3cc(Cl)ccc31)CCN(C)CC2)c1cccc(F)c1` [compound 247], the inhibition at 0.1 µM [1, 9] is reported as 89%, the inhibition at 0.1 µM [2, 10] is reported as 96% and the inhibition at 0.1 µM [3, 11] is reported as 95%. It also gave an inhibition at 0.1 µM [4, 12] of 81%.

`C/C(=C\n1c2c(c3cc(Cl)ccc31)CCN(C)CC2)c1cccc(F)c1` [compound 248] gave an inhibition at 0.1 µM [1, 9] of 95%, an inhibition at 0.1 µM [2, 10] of 90% and an inhibition at 0.1 µM [3, 11] of 76%. For the same compound, the inhibition at 0.1 µM [4, 12] was 31%.
